Test: xn = mol fraction of the nth substance listed

CCCCNCCCC + CCCCCCCO
viscosity [mPa·s], 101.33 kPa
Conditions	x1 = 0.0975	x1 = 0.197	x1 = 0.2901	x1 = 0.3789	x1 = 0.4808	x1 = 0.5861	x1 = 0.685	x1 = 0.7862	x1 = 0.8807
303.15 K	4.226	3.629	3.099	2.63	2.15	1.741	1.432	1.171	0.9696
313.15 K	3.151	2.716	2.337	2.013	1.685	1.393	1.169	0.9814	0.8316

COCCO + CCCCCCCO
viscosity [mPa·s], 101 kPa
Conditions	x1 = 0.1451	x1 = 0.2763	x1 = 0.3956	x1 = 0.5044	x1 = 0.6043	x1 = 0.6961	x1 = 0.7808	x1 = 0.8593	x1 = 0.9322
298.15 K	4.92	3.963	3.336	2.889	2.551	2.252	2.054	1.852	1.79
308.15 K	3.116	2.561	2.23	1.936	1.753	1.592	1.489	1.341	1.247
318.15 K	2.496	2.203	1.906	1.611	1.487	1.455	1.465	1.142	1.095

CCCCNCCCC + CCCCCCO
viscosity [mPa·s], 101.33 kPa
Conditions	x1 = 0.1034	x1 = 0.1705	x1 = 0.2901	x1 = 0.3817	x1 = 0.5001	x1 = 0.5958	x1 = 0.6955	x1 = 0.7942	x1 = 0.9007
303.15 K	3.304	2.992	2.495	2.156	1.776	1.52	1.277	1.088	0.9036
313.15 K	2.723	2.473	2.069	1.792	1.475	1.265	1.088	0.9214	0.7818

COCCO + CCCCCCO
viscosity [mPa·s], 101 kPa
Conditions	x1 = 0.1298	x1 = 0.2513	x1 = 0.3653	x1 = 0.4723	x1 = 0.5731	x1 = 0.6682	x1 = 0.758	x1 = 0.843	x1 = 0.9236
298.15 K	3.765	3.225	2.811	2.458	2.25	2.076	1.94	1.815	1.707
308.15 K	2.612	2.233	2.027	1.815	1.667	1.487	1.356	1.303	1.273
318.15 K	2.193	1.908	1.648	1.477	1.356	1.278	1.211	1.129	1.083

CCCCNCCCC + CCCCCO
viscosity [mPa·s], 101.33 kPa
Conditions	x1 = 0.0971	x1 = 0.2014	x1 = 0.3007	x1 = 0.4003	x1 = 0.5004	x1 = 0.5841	x1 = 0.6901	x1 = 0.7836	x1 = 0.8845
303.15 K	2.493	2.178	1.913	1.676	1.473	1.319	1.142	1.006	0.8804
313.15 K	2.078	1.814	1.601	1.41	1.241	1.116	0.9767	0.8701	0.7633

COCCO + CCCCCO
viscosity [mPa·s]
Conditions	298.15 K	308.15 K	318.15 K
101 kPa, x1 = 0.114	2.939	2.12	1.659
101 kPa, x1 = 0.2246	2.569	1.894	1.525
101 kPa, x1 = 0.3317	2.346	1.724	1.427
101 kPa, x1 = 0.4357	2.155	1.543	1.279
101 kPa, x1 = 0.5367	2.007	1.442	1.234
101 kPa, x1 = 0.6347	1.894	1.413	1.222
101 kPa, x1 = 0.7299	1.8	1.306	1.208
101 kPa, x1 = 0.8225	1.72	1.254	1.035
101 kPa, x1 = 0.9125	1.686	1.249	1.036
101.33 kPa, x1 = 0.1741	–	1.966	–
101.33 kPa, x1 = 0.2604	–	1.804	–
101.33 kPa, x1 = 0.3455	–	1.665	–
101.33 kPa, x1 = 0.4796	–	1.511	–
101.33 kPa, x1 = 0.6102	–	1.385	–
101.33 kPa, x1 = 0.7245	–	1.309	–
101.33 kPa, x1 = 0.78	–	1.284	–
101.33 kPa, x1 = 0.9014	–	1.23	–

OC(c1ccccc1)c1ccccc1 + CCCCCOC(C)=O
Conditions	viscosity [mPa·s]
298.15 K, 101 kPa, x2 = 0.5	1.496

CCCCBr + CCCCO
viscosity [mPa·s], 101.33 kPa
Conditions	x2 = 0.1114	x2 = 0.2168	x2 = 0.3241	x2 = 0.4255	x2 = 0.5172	x2 = 0.6158	x2 = 0.7127	x2 = 0.7911	x2 = 0.8968
298.15 K	0.63	0.685	0.759	0.86	0.983	1.158	1.394	1.636	2.046
308.15 K	0.554	0.588	0.638	0.706	0.793	0.918	1.086	1.261	1.581
318.15 K	0.495	0.522	0.561	0.613	0.679	0.771	0.899	1.029	1.264

CCCCNCCCC + CCCCO
Conditions	viscosity [mPa·s]
298.15 K, 101.33 kPa, x1 = 0.0635	2.402
298.15 K, 101.33 kPa, x1 = 0.1073	2.317
298.15 K, 101.33 kPa, x1 = 0.1494	2.223
298.15 K, 101.33 kPa, x1 = 0.2108	2.071
298.15 K, 101.33 kPa, x1 = 0.2648	1.932
298.15 K, 101.33 kPa, x1 = 0.3259	1.78
298.15 K, 101.33 kPa, x1 = 0.3973	1.606
298.15 K, 101.33 kPa, x1 = 0.4697	1.447
298.15 K, 101.33 kPa, x1 = 0.5484	1.303
298.15 K, 101.33 kPa, x1 = 0.6286	1.172
298.15 K, 101.33 kPa, x1 = 0.7575	1.015
298.15 K, 101.33 kPa, x1 = 0.8182	0.962
298.15 K, 101.33 kPa, x1 = 0.8572	0.927
298.15 K, 101.33 kPa, x1 = 0.8972	0.888
298.15 K, 101.33 kPa, x1 = 0.923	0.883
303.15 K, 101 kPa, x1 = 0.01155	2.23
303.15 K, 101 kPa, x1 = 0.01803	2.213
303.15 K, 101 kPa, x1 = 0.02448	2.198
303.15 K, 101 kPa, x1 = 0.03423	2.177
303.15 K, 101 kPa, x1 = 0.04155	2.163
303.15 K, 101 kPa, x1 = 0.04858	2.15
303.15 K, 101 kPa, x1 = 0.05659	2.134
303.15 K, 101 kPa, x1 = 0.06332	2.12
303.15 K, 101 kPa, x1 = 0.1014	2.031
303.15 K, 101.33 kPa, x1 = 0.0951	2.122
303.15 K, 101.33 kPa, x1 = 0.1888	1.923
303.15 K, 101.33 kPa, x1 = 0.2886	1.712
303.15 K, 101.33 kPa, x1 = 0.3967	1.507
303.15 K, 101.33 kPa, x1 = 0.4924	1.34
303.15 K, 101.33 kPa, x1 = 0.5903	1.201
303.15 K, 101.33 kPa, x1 = 0.6884	1.078
303.15 K, 101.33 kPa, x1 = 0.7951	0.96
303.15 K, 101.33 kPa, x1 = 0.8941	0.8638
308.15 K, 101.33 kPa, x1 = 0.0635	1.828
308.15 K, 101.33 kPa, x1 = 0.1073	1.767
308.15 K, 101.33 kPa, x1 = 0.1494	1.698
308.15 K, 101.33 kPa, x1 = 0.2108	1.588
308.15 K, 101.33 kPa, x1 = 0.2648	1.485
308.15 K, 101.33 kPa, x1 = 0.3259	1.377
308.15 K, 101.33 kPa, x1 = 0.3973	1.255
308.15 K, 101.33 kPa, x1 = 0.4697	1.145
308.15 K, 101.33 kPa, x1 = 0.5484	1.042
308.15 K, 101.33 kPa, x1 = 0.6286	0.952
308.15 K, 101.33 kPa, x1 = 0.7575	0.841
308.15 K, 101.33 kPa, x1 = 0.8182	0.801
308.15 K, 101.33 kPa, x1 = 0.8572	0.776
308.15 K, 101.33 kPa, x1 = 0.8972	0.753
308.15 K, 101.33 kPa, x1 = 0.923	0.739
313.15 K, 101.33 kPa, x1 = 0.0951	1.68
313.15 K, 101.33 kPa, x1 = 0.1888	1.532
313.15 K, 101.33 kPa, x1 = 0.2886	1.38
313.15 K, 101.33 kPa, x1 = 0.3967	1.225
313.15 K, 101.33 kPa, x1 = 0.4924	1.106
313.15 K, 101.33 kPa, x1 = 0.5903	0.9976
313.15 K, 101.33 kPa, x1 = 0.6884	0.9063
313.15 K, 101.33 kPa, x1 = 0.7951	0.8105
313.15 K, 101.33 kPa, x1 = 0.8941	0.7369
318.15 K, 101.33 kPa, x1 = 0.0635	1.441
318.15 K, 101.33 kPa, x1 = 0.1073	1.395
318.15 K, 101.33 kPa, x1 = 0.1494	1.344
318.15 K, 101.33 kPa, x1 = 0.2108	1.263
318.15 K, 101.33 kPa, x1 = 0.2648	1.188
318.15 K, 101.33 kPa, x1 = 0.3259	1.108
318.15 K, 101.33 kPa, x1 = 0.3973	1.018
318.15 K, 101.33 kPa, x1 = 0.4697	0.938
318.15 K, 101.33 kPa, x1 = 0.5484	0.864
318.15 K, 101.33 kPa, x1 = 0.6286	0.798
318.15 K, 101.33 kPa, x1 = 0.7575	0.717
318.15 K, 101.33 kPa, x1 = 0.8182	0.687
318.15 K, 101.33 kPa, x1 = 0.8572	0.669
318.15 K, 101.33 kPa, x1 = 0.8972	0.65
318.15 K, 101.33 kPa, x1 = 0.923	0.642

CCOC(=O)C(=O)OCC + CCCCO
303.15 K, 101.33 kPa
Conditions	viscosity [mPa·s]
x1 = 0.1064	1.803
x1 = 0.1924	1.613
x1 = 0.2954	1.496
x1 = 0.3832	1.438
x1 = 0.5033	1.405
x1 = 0.6097	1.405
x1 = 0.6734	1.419
x1 = 0.7804	1.461
x1 = 0.9074	1.556

COCCO + CCCCO
viscosity [mPa·s]
Conditions	298.15 K	308.15 K	313.15 K	318.15 K
100 kPa, x1 = 0.1009	2.27	–	1.6	–
100 kPa, x1 = 0.2003	2.06	–	1.48	–
100 kPa, x1 = 0.3003	1.91	–	1.39	–
100 kPa, x1 = 0.4012	1.8	–	1.32	–
100 kPa, x1 = 0.5008	1.72	–	1.27	–
100 kPa, x1 = 0.6012	1.65	–	1.24	–
100 kPa, x1 = 0.7006	1.61	–	1.21	–
100 kPa, x1 = 0.7998	1.58	–	1.19	–
100 kPa, x1 = 0.9	1.56	–	1.18	–
101 kPa, x1 = 0.09765	2.212	1.688	–	1.266
101 kPa, x1 = 0.1958	2.061	1.583	–	1.212
101 kPa, x1 = 0.2945	1.948	1.49	–	1.172
101 kPa, x1 = 0.3937	1.88	1.355	–	1.117
101 kPa, x1 = 0.4934	1.813	1.304	–	1.063
101 kPa, x1 = 0.5937	1.767	1.248	–	1.046
101 kPa, x1 = 0.6944	1.723	1.219	–	1.036
101 kPa, x1 = 0.7957	1.674	1.191	–	0.996
101 kPa, x1 = 0.8976	1.622	1.179	–	0.9925
101.33 kPa, x1 = 0.1184	–	1.694	–	–
101.33 kPa, x1 = 0.2345	–	1.551	–	–
101.33 kPa, x1 = 0.3377	–	1.443	–	–
101.33 kPa, x1 = 0.4484	–	1.361	–	–
101.33 kPa, x1 = 0.5476	–	1.305	–	–
101.33 kPa, x1 = 0.6312	–	1.265	–	–
101.33 kPa, x1 = 0.7363	–	1.229	–	–
101.33 kPa, x1 = 0.9104	–	1.195	–	–

From the CheMixHub viscosity set
